# Laboratory results from patent publication US6528494B2 (priority 1996, dated 2003).
# Counter-ions that a name gives are not always drawn.
# Columns and labels:
# Format in all cases: cell-based
# [1] = molecular target: T1, adenosine 1 receptor (Homo sapiens, UniProt P30542); experiment: Agonist activity against adenosine 1 receptor (CHO cells, forskolin-enhanced cAMP/SPAP reporter); details: CHO cells transfected with human receptor; forskolin-enhanced cAMP via SPAP; mean of all the versions tested
# T1 sequence (P30542 1-326): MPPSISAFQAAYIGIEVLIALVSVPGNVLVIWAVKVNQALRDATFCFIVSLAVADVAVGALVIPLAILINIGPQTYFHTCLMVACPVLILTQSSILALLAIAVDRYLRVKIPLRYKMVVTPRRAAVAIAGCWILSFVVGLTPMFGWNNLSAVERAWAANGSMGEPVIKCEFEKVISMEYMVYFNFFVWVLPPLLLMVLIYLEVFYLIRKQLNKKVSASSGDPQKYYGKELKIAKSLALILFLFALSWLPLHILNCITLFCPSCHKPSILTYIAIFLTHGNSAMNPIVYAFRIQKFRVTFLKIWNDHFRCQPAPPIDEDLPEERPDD
# Description: (§1) (1) Agonist activity against adenosine 2a, adenosine 1 and adenosine 3 receptor subtypes.
# (§2) The effect of test compounds was determined by their effects on basal levels of cAMP (A2a) or on forskolin-enhanced cAMP (A1 and A3) as reflected by changes in levels of SPAP.
# [2] = molecular target: T2, adenosine 3 receptor (Homo sapiens, UniProt P0DMS8); experiment: Agonist activity against adenosine 3 receptor (CHO cells, forskolin-enhanced cAMP/SPAP reporter); details: CHO cells transfected with human receptor; forskolin-enhanced cAMP via SPAP; mean of all the versions tested
# T2 sequence (P0DMS8 1-318): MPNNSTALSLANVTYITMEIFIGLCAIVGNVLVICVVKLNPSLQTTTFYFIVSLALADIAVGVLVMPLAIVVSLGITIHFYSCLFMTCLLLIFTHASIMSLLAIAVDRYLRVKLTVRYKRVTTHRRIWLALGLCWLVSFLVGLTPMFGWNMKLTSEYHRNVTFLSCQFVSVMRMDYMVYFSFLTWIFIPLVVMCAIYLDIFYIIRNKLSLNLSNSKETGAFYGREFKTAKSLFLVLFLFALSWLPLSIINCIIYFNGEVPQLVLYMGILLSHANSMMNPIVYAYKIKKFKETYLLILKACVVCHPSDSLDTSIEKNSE
# Description: as §1, §2
# [3] = molecular target: adenosine 2a receptor (Homo sapiens, UniProt P29274); experiment: Agonist activity against adenosine 2a receptor (CHO cells, cAMP/SPAP reporter); details: CHO cells transfected with human receptor; basal cAMP via SPAP; mean of all the versions tested
# Description: as §1, §2
# Chain of adenosine 2a receptor (P29274 whole entry): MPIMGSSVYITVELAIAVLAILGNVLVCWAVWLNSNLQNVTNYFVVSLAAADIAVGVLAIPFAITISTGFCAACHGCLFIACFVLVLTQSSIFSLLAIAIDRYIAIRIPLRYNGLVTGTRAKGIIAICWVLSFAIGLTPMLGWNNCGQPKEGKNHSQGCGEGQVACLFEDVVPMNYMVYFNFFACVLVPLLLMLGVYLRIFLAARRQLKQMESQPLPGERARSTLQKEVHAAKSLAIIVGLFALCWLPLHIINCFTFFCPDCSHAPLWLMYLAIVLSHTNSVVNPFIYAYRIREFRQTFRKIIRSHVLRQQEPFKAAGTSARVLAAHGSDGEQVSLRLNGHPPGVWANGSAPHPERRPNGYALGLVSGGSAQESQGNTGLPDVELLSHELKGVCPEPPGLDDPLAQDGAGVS
Compound,A1 EC50 as a ratio of that of NECA [1],A3 EC50 as a ratio of that of NECA [2],A2a EC50 as a ratio of that of NECA [3]
"Cn1nnc(C2OC(n3cnc4c(NC5CCCC5)nc(NC(CO)Cc5ccccc5)nc43)C(O)C2O)n1 [Example 36, (2R,3R,4S,5R)-2-[6-Cyclopentylamino-2-(1S-hydroxymethyl-2-phenyl-ethylamino)-purin-9-yl]-5-(2-methyl-2H-tetrazol-5-yl)-tetrahydro-furan-3,4-diol Formate]",1.9,>315,0.99
"CCn1nnc([C@H]2O[C@@H](n3cnc4c(NCC(c5ccccc5)c5ccccc5)nc(NCCc5cccc(N)n5)nc43)[C@H](O)[C@@H]2O)n1.O=C(O)C(F)(F)F.O=C(O)C(F)(F)F.O=C(O)C(F)(F)F [Example 22, (2R,3R,4S,5R)-2-[2-[2-(6-Amino-pyridin-2-yl)-ethylamino]-6-(2,2-diphenyl-ethylamino)-purin-9-yl]-5-(2-ethyl-2H-tetrazol-5-yl)-tetrahydro-furan-3,4-diol tris(Trifluoroacetate)]",86.4,>188,0.67
"CCC(CC)Nc1nc(NCCN2CCCC2)nc2c1ncn2C1OC(c2nnn(C)n2)C(O)C1O.O=CO.O=CO [Example 90, (2R,3R,4S,5R)-2-[6-(1-Ethyl-propylamino)-2-(2-pyrrolidin-1-yl-ethylamino)-purin-9-yl]-5-(2-methyl-2H-tetrazol-5-yl)-tetrahydro-furan-3,4-diol Diformate]",245.90,>267,2.41
"CCn1nnc([C@H]2O[C@@H](n3cnc4c(N)nc(NCc5ccccc5CO)nc43)[C@H](O)[C@@H]2O)n1.O=C(O)C(F)(F)F [Example 86, (2R,3R,4S,5R)-2-[6-Amino-2-(2-hydroxymethyl-benzylamino)-purin-9-yl]-5-(2-ethyl-2H-tetrazol-5-yl)-tetrahydro-furan-3,4-diol Trifluoroacetate]",16.90,>179,2.16
"Cn1nnc(C2OC(n3cnc4c(NC(CO)Cc5ccccc5)nc(NCCN5CCCCC5)nc43)C(O)C2O)n1 [Example 107, (2R,3R,4S,5R)-2-[6-(1S-Hydroxymethyl-2-phenyl-ethylamino)-2-(2-piperidin-1-yl-ethylamino)-purin-9-yl]-5-(2-methyl-2H-tetrazol-5-yl)-tetrahydro-furan-3,4-diol bis(Formate)]",89.10,>233,1.27
"CCn1nnc([C@H]2O[C@@H](n3cnc4c(NCC(c5ccccc5)c5ccccc5)nc(NCCN)nc43)[C@H](O)[C@@H]2O)n1 [Example 83, (2R,3R,4S,5R)-2-[2-(2-Amino-ethylamino)-6-(2,2-diphenyl-ethylamino)-purin-9-yl]-5-(2-ethyl-2H-tetrazol-5-yl)-tetrahydro-furan-3,4-diol]",130.10,>362,4.82
"CC(C)n1nnc([C@H]2O[C@@H](n3cnc4c(NCc5ccccc5)nc(NCCc5cn(C)cn5)nc43)[C@H](O)[C@@H]2O)n1.O=CO [Example 58, (2R,3R,4S,5R)-2-{6-Benzylamino-2-[2-(1-methyl-1H-imidazol-4-yl)-ethylamino]-purin-9-yl}-5-(2-isopropyl-2H-tetrazol-5-yl)-tetrahydro-furan-3,4-diol Formate]",1119.00,>515,6.07
"CC(=O)O.CC(=O)O.CCn1nnc(C2OC(n3cnc4c(NCCN5CCOCC5)nc(NCCc5cn(C)cn5)nc43)C(O)C2O)n1 [Example 50, (2R,3S,4R,5R)-2-(2-Ethyl-2H-tetrazol-5-yl)-5-[2-[2-(1-methyl-1H-imidazol-4-yl)-ethylamino]-6-(2-morpholin-4-yl-ethylamino)-purin-9-yl]-tetrahydro-furan-3,4-diol Diacetate]",2443.00,>86,1.48
Cn1nnc(C2OC(n3cnc4c(NCC(c5ccccc5)c5ccccc5)nc(NCCc5ccccn5)nc43)C(O)C2O)n1.O=CO.O=CO (stereo not drawn) [Example 97],1413.00,>240,2.34
"CCn1nnc(C2OC(n3cnc4c(N)nc(NCCc5ccc(S(N)(=O)=O)cc5)nc43)C(O)C2O)n1 (stereo not drawn) [Example 17, 4-(2-{6-Amino-9-[5R-(2-ethyl-2H-tetrazol-5-yl)-3R,4S-Dihydroxy-tetrahydro-furan-2R-yl]-9H-purin-2-ylamino}-ethyl)-benzenesulfonamide Formate]",247.6,>346,0.69
"CCn1nnc(C2OC(n3cnc4c(N)nc(NC5CCCC5O)nc43)C(O)C2O)n1 [Example 10, (2R,3R,4S,5R)-2-[6-Amino-2-(2R-hydroxy-cyclopent-1R-ylamino)-purin-9-yl]-5-(2-ethyl-2H-tetrazol-5-yl)-tetrahydro-furan-3,4-diol Hydrochloride]",22.1,3.66,0.11
"CCn1nnc([C@H]2O[C@@H](n3cnc4c(N)nc(NC5CC6CCC5C6)nc43)[C@H](O)[C@@H]2O)n1.O=C(O)C(F)(F)F (stereo partly drawn) [Example 19, (2R,3R,4S,5R)-2-[6-Amino-2-(bicyclo[2.2.1]hept-2-ylamino)-purin-9-yl]-5-(2-ethyl-2H-tetrazol-5-yl)-tetrahydro-furan-3,4-diol Trifluoroacetate]",85.6,>382,0.21
"CCC(CC)Nc1nc(NC2CCC(N)CC2)nc2c1ncn2C1OC(c2nnn(C(C)C)n2)C(O)C1O.O=CO.O=CO [Example 67, (2R,3R,4S,5R)-2-[2-(trans-4-Amino-cyclohexylamino)-6-(1-ethyl-propylamino)-purin-9-yl]-5-(2-isopropyl-2H-tetrazol-5-yl)-tetrahydro-furan-3,4-diol bis(Formate)]",73.85,>326,2.96
"CCn1nnc([C@H]2O[C@@H](n3cnc4c(NCc5cccc(I)c5)nc(NCCc5cn(C)cn5)nc43)[C@H](O)[C@@H]2O)n1 [Example 3, (2R,3S,4R,5R)-2-(2-Ethyl-2H-tetrazol-5-yl)-5-{6-(3-iodo-benzylamino)-2-[2-(1-methyl-1H-imidazol-4-yl)-ethylamino]-purin-9-yl}-tetrahydro-furan-3,4-diol]",230.8,>116,0.84
"CCn1nnc([C@H]2O[C@@H](n3cnc4c(NCC(c5ccccc5)c5ccccc5)nc(NCCO)nc43)[C@H](O)[C@@H]2O)n1.O=C(O)C(F)(F)F [Example 47, (2R,3R,4S,5R)-2-[6-(2,2-Diphenyl-ethylamino)-2-(2-hydroxy-ethylamino)-purin-9-yl]-5-(2-ethyl-2H-tetrazol-5-yl)-tetrahydro-furan-3,4-diol Trifluoroacetate]",27.40,>216,1.06
"CCn1nnc([C@H]2O[C@@H](n3cnc4c(N)nc(NCCc5ccc(O)cc5)nc43)[C@H](O)[C@@H]2O)n1.O=CO [Example 16, (2R,3R,4S,5R)-2-{6-Amino-2-[2-(4-hydroxy-phenyl)-ethylamino]-purin-9-yl}-5-(2-ethyl-2H-tetrazol-5-yl)-tetrahydro-furan-3,4-diol Formate]",516.4,>209,0.3
CCn1nnc([C@H]2O[C@@H](n3cnc4c(NCC(c5ccccc5)c5ccccc5)nc(NC5CCS(=O)(=O)C5)nc43)[C@H](O)[C@@H]2O)n1.O=C(O)C(F)(F)F.O=C(O)C(F)(F)F (stereo partly drawn) [Example 45],>1578.00,>420,2.26
